Source: patent US20160058806A1, “METHOD FOR STIMULATING INTESTINAL BARRIER INTEGRITY AFTER NON-NATURAL BIRTH” (N.V. Nutricia, priority 2005, published 2016)

Key:
[1] = tested on: intestinal epithelial cell lines T84; assay: Effect of LC-PUFA on IL-4 mediated barrier disruption of T84 monolayers (TER and permeability); assay type: cell-based; settings: IL-4 2 ng/ml; fatty acid 100 μM, mucosal compartment; 48 hr pre-incubation + 48 hr co-incubation
Protocol: (§1) Monolayers (MC) of intestinal epithelial cell lines T84 were incubated in the luminal compartment with different 100 μM polyunsaturated fatty acids ARA (arachidonic acid; 5,8,11,14-eicosatetraenoic acid), DHA (cis-4,7,10,13,16,19 docosahexaenoic acid), EPA (eicosapentaenoic acid) or control palmiiic (C 16:0) acid (Palm) (Sigma, St. Louis, USA) for 0, 24, 48 and 72 hr. The epithelial barrier function was determined by measuring the transepithelial resistance (TER, Ωcm^2) by epithelial volt-ohm meter (EVOM; World Precision Instruments, Germany) and permeability for 4 kD FITC dextran (paracellular permeability marker, Sigma, USA).
Monolayers (MC) of intestinal epithelial cell lines T84 were incubated in the presence of IL-4 (2 ng/ml, scrosal compartment, Sigma, USA) with or without polyunsaturated fatty acids ARA, DHA, GLA, EPA, or control palmitic acid (10 μM or 100 μM, mucosal compartment, Sigma, St. Louis, USA). Cells were pre-incubated with ARA, DHA, EPA, or palmitic acid for 48 hr prior to the IL-4 incubation. The co-incubation of PUFA's and palmitic acid with IL-4 was continued for another 48 hr, while culture medium and additives were changed every 24 hr. The epithelial barrier function was determined by measuring the transepithelial resistance (TER) and permeability as described in example 2.

[2] = tested on: intestinal epithelial cell lines T84; assay: Effect of LC-PUFA on spontaneous barrier integrity of T84 monolayers (TER and 4 kD FITC dextran flux); assay type: cell-based; settings: result in words
Protocol: as §1

| SMILES | IL-4 Flux [1] | IL-4 TER [1] | effect on basal barrier integrity resistance and flux [2] |
| --- | --- | --- | --- |
| CCCCCC=CCC=CCC=CCC=CCCCC(=O)O [ARA, 5,8,11,14-eicosatetraenoic acid] | 218 | 636 | – |
| CC/C=C\C/C=C\C/C=C\C/C=C\C/C=C\CCCC(=O)O [EPA, eicosapentaenoic acid] | 228 | 539 | – |
| CCCCCCCCCCCCCCCC(=O)O [Palmitic acid, palmitic acid, reference compound] | 777 | 321 | – |
| CCCCC/C=C\C/C=C\C/C=C\CCCCC(=O)O [GLA, gamma-linolenic acid] | – | – | positive effect |
